# Assay results: patent US6048884A, “Amide derivatives and medicinal compositions thereof” (Yamanouchi Pharmaceutical Co., Ltd., priority 1997, dated 2000)
# Structures can show the parent of a compound that is named as a salt.
# Key:
# [1] = tested on: kk mice (insulin-resisting model: obesity and hyperglycemia); experiment: Hypoglycemic test in kk mice (insulin sensitivity potentiating action); format: in vivo; conditions: oral administration of 10 mg/kg once daily for four days; blood sugar 15 to 18 hours after final administration vs level prior to administration; male kk mice, n=6; p<0.01
# Procedure: 1. Hypoglycemic test in kk mice (insulin-resisting model: obesity and hyperglycemia) [insulin sensitivity potentiating action]:
# Blood sugar levels under feeding were measured for male kk mice (sugar blood level being 200 mg/dl or more) and they were randomly divided into several groups. The drug to be tested was compulsorily administered per os once daily for four days and the blood sugar level after 15 to 18 hours from the final administration was compared with the level prior to the administration (n=6), whereupon a hypoglycemic rate (%) was calculated. Blood was collected from tail vein of the mouse using a glass capillary (previously treated with heparin), protein was removed therefrom and the amount of glucose (mg/dl) in the supernatant liquid was calorimetrically determined by a glucose oxidase method to obtain the blood sugar level.
# [2] = tested on: normal rats (male rats of SD-strain); experiment: Sugar tolerance test in normal rats (OGTT; insulin secretion promoting action); format: in vivo; conditions: 10 mg/kg orally 30 minutes before glucose 2 g/kg per os; fasted male SD rats, n=4
# Procedure: 2. Sugar tolerance test in normal rats [insulin secretion promoting action]:
# Male rats of SD-strain (seven weeks age) were fasted for one night and day, randomly divided into several groups and subjected to an oral glucose tolerance test (OGTT) (n=4). The compound to be tested was orally administered at 30 minutes before administration of glucose (2 g/kg per os). Blood was collected by a heparin-treated glass syringe from abdominal artery of the rat under anesthetization with 65 mg/kg of pentbarbital, protein was removed therefrom and the amount of glucose (mg/dl) in the supernatant liquid was calorimetrically determined by a glucose oxidase method to obtain the blood sugar level. Insulin level in blood was determined by measuring the amount of insulin (ng/ml) in plasma by means of a radio-immunoassay (RIA). The result was that, when 10 mg/kg of the compound of Example 4 was administered, insulin secretion increased to an extent of three-fold in terms of AUC ratio and blood sugar level decreased to 90% as compared with that prior to the administration.
Compound,hypoglycemic rate [1],"blood sugar level decreased to, as compared with that prior to the administration [2]","insulin secretion increase in terms of AUC ratio (plasma insulin, RIA) [2]"
"CC(Cc1ccc(NC(=O)Cc2csc(Nc3ccccc3)n2)cc1)NC[C@H](O)COc1ccccc1 (stereo partly drawn) [Example 2-c, (S)-2-(2-anilino-4-thiazol-4-yl)-4'-{2-[(-2-hydroxy-3-phenoxypropyl)amino]propyl}acetanilide]",50%,–,–
"O=C(Cc1csc(Nc2cccc(F)c2)n1)Nc1ccc(CCNC[C@H](O)COc2ccccc2)cc1 [Example 2-b, (S)-2-[2-(3-fluoroanilino)-4-thiazol-4-yl)-4'-[2-[(2-hydroxy-3-phenoxypropyl)amino]ethyl]acetanilide]",52%,–,–
"O=C(Cc1csc(Nc2ccccc2)n1)Nc1ccc(CCNC[C@H](O)COc2ccccc2)cc1 [Example 4, (S)-2-(2-phenylaminothiazol-4-yl)-4'-[2-[(2-hydroxy-3-phenoxyethyl)amino]ethyl]acetanilide dihydrochloride]",56%,90%,three-fold
"O=C(Cc1csc(NCc2ccccc2)n1)Nc1ccc(CCNC[C@H](O)COc2ccccc2)cc1 [Example 1, (S)-2-(2-benzylamino-4-thiazolyl)-4'-[2-[(2-hydroxy-3-phenoxypropyl)amino]ethyl]acetanilide]",47%,–,–
